US10689399B2, “Substituted 3,4,5,6,8,10,14,14a-octahydro-2h-2,6-methanopyrido[1′,2′:4,5]pyrazino[2,1-b][1,3]oxazocines and methods for treating viral infections” (Gilead Sciences, Inc., priority 2012, dated 2020)

These molecules were tested on HIV-IIIb (assay: Antiviral assay in MT4 cells). Settings: Human immunodeficiency virus 1, IIIB, MT4, 120 h, MT4 cells infected with HIV-IIIb, 5 days, CellTiter-Glo; read-out: EC50 nM in MT-4.
Format: cell-based
Procedure: For the antiviral assay utilizing MT4 cells, 0.4 μL of 189X test concentration of 3-fold serially diluted compound in DMSO was added to 40 μL of cell growth medium (RPMI 1640, 10% FBS, 1% penicilline/Streptomycine, 1% L-Glutamine, 1% HEPES) in each well of 384-well assay plates (10 concentrations) in quidruplicate.
1 mL aliquots of 2×10^6 MT4 cells are pre-infected for 1 and 3 hours respectively at 37° C. with 25 μL (MT4) or of either cell growth medium (mock-infected) or a fresh 1:250 dilution of an HIV-IIIb concentrated ABI stock (0.004 m.o.i. for MT4 cells). Infected and uninfected cells are diluted in cell growth medium and 35 μL of 2000 (for MT4) cells is added to each well of the assay plates.
Assay plates were then incubated in a 37° C. incubator. After 5 days of incubation, 25 μL of 2× concentrated CellTiter-Glo™ Reagent (catalog # G7573, Promega Biosciences, Inc., Madison, Wis.) was added to each well of the assay plate. Cell lysis was carried out by incubating at room temperature for 2-3 minutes, and then chemiluminescence was read using the Envision reader (PerkinElmer).
In the case of O=C(NCc1ccc(F)cc1F)c1cn2c(c(O)c1=O)C(=O)N1[C@@H]3COC[C@@H](C3)O[C@H]1C2 (racemic) [50/51, N-(2,4-difluorobenzyl)-9-hydroxy-8,10-dioxo-2,3,5,6,8,10,14,14a-octahydro-2,6-methanopyrido[1′,2′:4,5]pyrazino[2,1-b][1,6,3]dioxazocine-11-carboxamide], the EC50 is reported as 1.9 nM.
With O=C(NCc1ccc(F)cc1F)c1cn2c(c(O)c1=O)C(=O)N1[C@@H]3CC[C@@H](C3)O[C@H]1C2 (racemic) [Compound 1, N-(2,4-difluorobenzyl)-8-hydroxy-7,9-dioxo-2,3,4,5,7,9,13,13a-octahydro-2,5-methanopyrido[1′,2′:4,5]pyrazino[2,1-b][1,3]oxazepine-10-carboxamide] the EC50 was 2.6 nM.
With O=C(NCc1c(F)cc(F)cc1F)c1cn2c(c(O)c1=O)C(=O)N1[C@H]3C[C@H](C3)[C@H]1C2 (single isomer, unassigned) [Compound 96] the EC50 was 2.6 nM.
Molecule O=C(NCc1c(F)cc(F)cc1F)c1cn2c(c(O)c1=O)C(=O)N1[C@H]3C[C@H](C3)[C@@H]1C2 (single isomer, unassigned) [Compound 97] has an EC50 of 2.1 nM.
Molecule O=C(NCc1c(F)cc(F)cc1F)c1cn2c(c(O)c1=O)C(=O)N1[C@H]3CC(F)C(C3)[C@@H]1C2 (stereo in doubt) [Compound 56, (1R,2S,4R,12aR)-2-fluoro-7-hydroxy-6,8-dioxo-N-(2,4,6-trifluorobenzyl)-1,2,3,4,6,8,12,12a-octahydro-1,4-methanodipyrido[1,2-a:1′,2′-d]pyrazine-9-carboxamide] has an EC50 of 3.1 nM.
O=C(NCc1ccc(F)cc1F)c1cn2c(c(O)c1=O)C(=O)N1[C@H]3CC[C@H](C3)O[C@@H]1C2 [Compound 2, (2R,5S,13aR)—N-(2,4-difluorobenzyl)-8-hydroxy-7,9-dioxo-2,3,4,5,7,9,13,13a-octahydro-2,5-methanopyrido[1′,2′:4,5]pyrazino[2,1-b][1,3]oxazepine-10-carboxamide] was tested, and the EC50 was 2.2 nM.
O=C(NCc1ccc(F)cc1F)c1cn2c(c(O)c1=O)C(=O)N1[C@@H]3CC[C@@H](C3)O[C@H]1C2 [Compound 3, (2S,5R,13aS)—N-(2,4-difluorobenzyl)-8-hydroxy-7,9-dioxo-2,3,4,5,7,9,13,13a-octahydro-2,5-methanopyrido[1′,2′:4,5]pyrazino[2,1-b][1,3]oxazepine-10-carboxamide] gave an EC50 of 2 nM.
In the case of O=C(NCc1ccc(F)cc1F)c1cn2c(c(O)c1=O)C(=O)N1C(C2)[N@@]2CC[C@@H]1C2 (stereo partly drawn) [Compound 4, (1S,4R)—N-(2,4-difluorobenzyl)-7-hydroxy-6,8-dioxo-3,4,6,8,12,12a-hexahydro-2H-1,4-methanopyrido[1′,2′:4,5]pyrazino[1,2-a]pyrimidine-9-carboxamide], the EC50 is reported as 14.8 nM.
Molecule C[C@@H]1CCO[C@H]2Cn3cc(C(=O)NC4(c5ccc(F)cc5F)CC4)c(=O)c(O)c3C(=O)N12 [Compound 5, (4R,12aS)—N-(1-(2,4-difluorophenyl)cyclopropyl)-7-hydroxy-4-methyl-6,8-dioxo-3,4,6,8,12,12a-hexahydro-2H-[1,3]oxazino[3,2-d]pyrido[1,2-a]pyrazine-9-carboxamide] has an EC50 of 8.1 nM.
In the case of O=C(NCc1ccc(F)cc1F)c1cn2c(c(O)c1=O)C(=O)N1C(C2)[N@]2CC[C@H]1C2 (stereo partly drawn) [Compound 6, (1R,4S)—N-(2,4-difluorobenzyl)-7-hydroxy-6,8-dioxo-3,4,6,8,12,12a-hexahydro-2H-1,4-methanopyrido[1′,2′:4,5]pyrazino[1,2-a]pyrimidine-9-carboxamide], the EC50 is reported as 5.3 nM.
Molecule O=C(NCc1ccc(F)cc1F)c1cn2c(c(O)c1=O)C(=O)N1C(C2)O[C@H]2CCC[C@@H]1C2 (stereo partly drawn) [Compound 7, (2S,6R)—N-(2,4-difluorobenzyl)-9-hydroxy-8,10-dioxo-3,4,5,6,8,10,14,14a-octahydro-2H-2,6-methanopyrido[1′,2′:4,5]pyrazino[2,1-b][1,3]oxazocine-11-carboxamide] has an EC50 of 3.5 nM.
O=C(NCc1ccc(F)cc1F)c1cn2c(c(O)c1=O)C(=O)N1C(C2)O[C@@H]2CCC[C@H]1C2 (stereo partly drawn) [Compound 8, (2R,6S)—N-(2,4-difluorobenzyl)-9-hydroxy-8,10-dioxo-3,4,5,6,8,10,14,14a-octahydro-2H-2,6-methanopyrido[1′,2′:4,5]pyrazino[2,1-b][1,3]oxazocine-11-carboxamide] gave an EC50 of 2.5 nM.
For C[C@@H](NC(=O)c1cn2c(c(O)c1=O)C(=O)N1[C@@H]3CC[C@@H](C3)O[C@H]1C2)c1ccc(F)cc1 [Compound 9, (2S,5R,13aS)—N—((R)-1-(4-fluorophenyl)ethyl)-8-hydroxy-7,9-dioxo-2,3,4,5,7,9,13,13a-octahydro-2,5-methanopyrido[1′,2′:4,5]pyrazino[2,1-b][1,3]oxazepine-10-carboxamide], the EC50 was 5.1 nM.
Work on C[C@@H](NC(=O)c1cn2c(c(O)c1=O)C(=O)N1[C@H]3CC[C@H](C3)O[C@@H]1C2)c1ccc(F)cc1 [Compound 10, (2R,5S,13aR)—N—((R)-1-(4-fluorophenyl)ethyl)-8-hydroxy-7,9-dioxo-2,3,4,5,7,9,13,13a-octahydro-2,5-methanopyrido[1%2′: 4,5]pyrazino[2,1-b][1,3]oxazepine-10-carboxamide] yielded an EC50 of 6.1 nM.
With C[C@@H](NC(=O)c1cn2c(c(O)c1=O)C(=O)N1[C@@H]3CC[C@@H](C3)O[C@H]1C2)c1ccc(F)cc1F [Compound 11, (2S,5R,13aS)—N—((R)-1-(2,4-difluorophenyl)ethyl)-8-hydroxy-7,9-dioxo-2,3,4,5,7,9,13,13a-octahydro-2,5-methanopyrido[1′,2′: 4,5]pyrazino[2,1-b][1,3]oxazepine-10-carboxamide] the EC50 was 4.9 nM.
C[C@@H](NC(=O)c1cn2c(c(O)c1=O)C(=O)N1[C@H]3CC[C@H](C3)O[C@@H]1C2)c1ccc(F)cc1F [Compound 12, (2R,5S,13aR)—N—((R)-1-(2,4-difluorophenyl)ethyl)-8-hydroxy-7,9-dioxo-2,3,4,5,7,9,13,13a-octahydro-2,5-methanopyrido[1′,2′:4,5]pyrazino[2,1-b][1,3]oxazepine-10-carboxamide] showed an EC50 of 5.9 nM.
C[C@H](NC(=O)c1cn2c(c(O)c1=O)C(=O)N1[C@@H]3CC[C@@H](C3)O[C@H]1C2)c1ccc(F)cc1F [Compound 13, (2S,5R,13aS)—N—((S)-1-(2,4-difluorophenyl)ethyl)-8-hydroxy-7,9-dioxo-2,3,4,5,7,9,13,13a-octahydro-2,5-methanopyrido[1%2′: 4,5]pyrazino[2,1-b][1,3]oxazepine-10-carboxamide] gave an EC50 of 46 nM.

Same assay, conditions: Human immunodeficiency virus 1, IIIB, MT4, 120 h, read-out: EC50 nM in MT-4, MT4 cells infected with HIV-IIIb, 5 days, CellTiter-Glo
O=C(NCc1ccc(F)cc1F)c1cn2c(c(O)c1=O)C(=O)N1C(C2)[C@H]2CC[C@@H]1C2 (stereo in doubt) [Compound 38, (1S,4R,12aR)—N-(2,4-difluorobenzyl)-7-hydroxy-6,8-dioxo-1,2,3,4,6,8,12,12a-octahydro-1,4-methanodipyrido[1,2-a:1′,2′-d]pyrazine-9-carboxamide] was tested, and the EC50 was 1.7 nM.
In the case of O=C(NCc1ccc(F)cc1F)c1cn2c(c(O)c1=O)C(=O)N1C(C2)[C@H]2CC[C@@H]1C2 (stereo in doubt) [Compound 48, (1S,4R,12aS)—N-(2,4-difluorobenzyl)-7-hydroxy-6,8-dioxo-1,2,3,4,6,8,12,12a-octahydro-1,4-methanodipyrido[1,2-a:1′,2′-d]pyrazine-9-carboxamide], the EC50 is reported as 2.7 nM.
